Results published in patent US11523614B2, “Soluble granule of Bacillus velezensis and its preparation method” (priority 2019, dated 2022).
Where two headings read alike, the source gives them in different places.

Columns and labels:
Assay type in all cases: in vivo
Meloidogyne incognita [1] = experiment: Population density of J2 of root knot nematodes in soil, cucumber greenhouse; details: for Population decline rate / Relative population reduction rate: J2 in soil; for Population decline rate: before administration vs end of test; for Relative population reduction rate: compared with the blank control; for population density of second instar larvae in soil, Before administration / population density of second instar larvae in soil, End of test: cucumber greenhouse soil
Rice blast [2] = details: for Avg. control effect: leaf blast
Rice blast [3] = details: 27 d After first administration; for Relative control: panicle blast
cucumber = experiment: Cucumber plant height at early stage; details: for Growth effect: plant height compared with CK0; for plant height at early stage, Avg. value: average of three replicates; for plant height at early stage, R1: average value of replicate 1; for plant height at early stage, R3: average value of replicate 3
Meloidogyne incognita [4] = experiment: Root-knot disease index of cucumber; details: for root-knot index of plants, Avg. value: average of three replicates; for root-knot index of plants, R1: average value of replicate 1; for root-knot index of plants, R3: average value of replicate 3
[5] = 14 d After first administration
[6] = before the first administration
[7] = root-knot index compared with CK0

Row | Structure (SMILES) | Population decline rate (Meloidogyne incognita [1]) | Relative population reduction rate (Meloidogyne incognita [1]) | Avg. leaf blast disease index (Rice blast [2]; 7 d After first administration) | Avg. leaf blast disease index (Rice blast [2]; [5]) | Avg. control effect (Rice blast [2]; 7 d After first administration) | Avg. control effect (Rice blast [2]; [5]) | Avg. panicle blast disease index (Rice blast [3]) | Relative control (Rice blast [3]) | Growth effect (cucumber) | population density of second instar larvae in soil, Before administration (Meloidogyne incognita [1]) | population density of second instar larvae in soil, End of test (Meloidogyne incognita [1]) | root-knot index of plants, Avg. value (Meloidogyne incognita [4]) | root-knot index of plants, R1 (Meloidogyne incognita [4]) | root-knot index of plants, R3 (Meloidogyne incognita [4]) | plant height at early stage, Avg. value (cucumber) | plant height at early stage, R1 (cucumber) | plant height at early stage, R3 (cucumber) | also measured
1 | C[C@H]1O[C@H](O[C@H]2[C@H](O)[C@@H](O)[C@@H](O)[C@H](O)[C@@H]2O)[C@@H](N)C[C@@H]1NC(=N)C(=O)O [CK2, kasugamycin] | 73.31% | 76.05% | 2.26 | 2.30 | 40.8AB % | 55.7A % | 0.86 | 66.3A % | 6.5% |  |  |  |  |  |  |  |  | Leaf blast disease index before first administration (Rice blast [2]; [6]): 1.61
2 | Cc1cccc2sc3nncn3c12 [CK3, Tricyclazole] |  |  | 2.04 | 2.14 | 48.2A % | 60.3A % | 0.65 | 74.7A % |  |  |  |  |  |  |  |  |  | Leaf rust before administration (Rice blast [2]; [6]): 1.59
3 | O=C(NCc1ncc(C(F)(F)F)cc1Cl)c1c(Cl)cccc1Cl [Fluopicolide, fluopicolide] | 73.31% | 76.05% |  |  |  |  |  |  | 6.5% | 390 strip/100 mL soil | 104 strip/100 mL soil | 25.00a | 28.33 | 24.67 | 107.6bc cm | 109.4 cm | 109.3 cm | Growth effect (Meloidogyne incognita [4]; [7]): 30.77%
4 | CN1CSC(=S)N(C)C1 [Dazomet, dazomet] | −119.21% | −116.47% |  |  |  |  |  |  | −0.4% | 429 strip/100 mL soil | 940 strip/100 mL soil | 26.44ab | 27.33 | 26.33 | 100.6a cm | 98.5 cm | 103.5 cm | Control effect on root-knot index (Meloidogyne incognita [4]; [7]): 26.77%
